Laboratory results published in the Deep4Chem optical property database.
Values joined by “and” are separate entries in the source; they are usually repeats but may differ in a detail not shown here. Equal entries are not always repeated. Values belong to the compound of their own block, whether it stands above or below them.

Experiment: solvent given as SMILES

Compound: COc1ccc(-c2pc3ccccc3s2)cc1 (stereo not given)
absorption maximum (in CC#N): 347 nm

Compound: CCCCC(CC)COc1cc(OCC(CC)CCCC)c2c#cc3ccc4c(c3)c3cc(c#cc5cc(c#cc6ccc7c(c6)c6cc(c#cc1c2)ccc6n7CC(CC)CCCC)c(C(CCCC)OCCC)cc5C(CCCC)OCCC)ccc3n4CC(CC)CCCC (stereo not given)
absorption maximum (in ClCCl): 340 nm

Compound: CN(C)c1ccc2nc(-c3ccc(C(=O)O)cc3)sc2c1
absorption maximum (in C1CCCCC1): 387 nm | absorption maximum (in CC#N): 390 nm | absorption maximum (in CC(C)O): 374 nm | absorption maximum (in CO): 377 nm | absorption maximum (in CS(C)=O): 400 nm | absorption maximum (in ClC(Cl)Cl): 400 nm | absorption maximum (in c1ccccc1): 394 nm

Compound: Fc1ccc(C#Cc2c(C#Cc3ccc(F)cc3)c(C#Cc3ccc(F)cc3)c(C#Cc3ccc(F)cc3)c(C#Cc3ccc(F)cc3)c2C#Cc2ccc(F)cc2)cc1
absorption maximum (in ClCCl): 368 nm

Compound: CCCC1=C(CCC)c2cccc3c2c(cc2nc4ccccc4nc23)O1
absorption maximum (in ClCCl): 499 nm

Compound: O=S(=O)([O-])c1cc(S(=O)(=O)Cl)ccc1C1=c2cc3c4c(c2Oc2c1cc1c5c2CCCN5CCC1)CCC[N+]=4CCC3
absorption maximum (in O): 589 nm

Compound: CC(C)(C)C1Nc2ccccc2C(=O)N1Cc1ccccc1 (stereo not given)
absorption maximum (in CC#N): 344 nm | absorption maximum (in CCCCCCCCCCCCCCCC): 333 nm | absorption maximum (in CO): 353 nm | absorption maximum (in ClC(Cl)Cl): 341 nm | absorption maximum (in c1ccccc1): 339 nm

Compound: O=c1c2ccccc2sc2ccc(-n3c4ccccc4c4ccccc43)cc12
absorption maximum (in C1CCOC1): 388 nm | absorption maximum (in CCCCCC): 388 nm | absorption maximum (in Cc1ccccc1): 388 nm | absorption maximum (in ClC(Cl)Cl): 388 nm | absorption maximum (in ClCCl): 388 nm

Compound: CN(C)c1ccc(C#CC2=C3CCc4ccccc4C3=[O+][B-](F)(F)O2)cc1
absorption maximum (in ClCCl): 514 nm

Compound: COc1ccc(/N=N/c2c(O)c3ccccc3n(C)c2=O)c(S(=O)(=O)O)c1
absorption maximum (in C1CCOC1): 449 nm | absorption maximum (in CC(C)=O): 451 nm | absorption maximum (in CCOC(C)=O): 446 nm | absorption maximum (in CO): 448 nm | absorption maximum (in CS(C)=O): 447 nm | absorption maximum (in Cc1ccccc1): 449 nm | absorption maximum (in ClCCl): 451 nm | absorption maximum (in O): 447 nm

Compound: COc1ccc2c(c1)CCc1c(-c3ccccc3)c3n(c1-2)[B-](F)(F)[N+]1=C2C=NC=CN2[B-](F)(F)[N+]1=C3
absorption maximum (in ClCCl): 546 nm

Compound: CN(C)c1ccc(C2=[N+]3C(=Nc4c(-c5ccc(O)cc5)cc(-c5ccc(N(C)C)cc5)n4[B-]3(F)F)C(c3ccc(O)cc3)=C2)cc1
absorption maximum (in C1CCOC1): 775 nm | absorption maximum (in CS(C)=O): 794 nm | absorption maximum (in Cc1ccccc1): 778 nm

Compound: COc1ccc(-n2nc(C#N)c(N3CCN(c4ccccn4)CC3)n2)cc1
absorption maximum (in CC#N): 321 nm

Compound: O=C1c2ccccc2C2=Cc3ccc4ccccc4[n+]3[B-](F)(F)N12
absorption maximum (in CCO): 450 nm | absorption maximum (in Cc1ccccc1): 458 nm | absorption maximum (in ClCCl): 454 nm

Compound: CC1=C(C)c2cccc3c2c(cc2nc4ccccc4nc23)O1
absorption maximum (in ClCCl): 497 nm

Compound: O=[N+]([O-])c1ccc(N/C=C/C=[NH+]c2ccc([N+](=O)[O-])cc2)cc1
absorption maximum (in CS(C)=O): 388 nm

Compound: CN(C)c1ccc(-c2nc3cnccc3[nH]2)cc1
absorption maximum (in C1CCCCC1): 327 nm | absorption maximum (in C1CCOC1): 332 nm | absorption maximum (in C1COCCO1): 331 nm | absorption maximum (in CC#N): 335 nm | absorption maximum (in CCCCO): 339 nm | absorption maximum (in CCCO): 339 nm | absorption maximum (in CCO): 340 nm | absorption maximum (in CCOC(C)=O): 332 nm | absorption maximum (in CCOCC): 328 nm | absorption maximum (in CO): 341 nm | absorption maximum (in O): 335 nm

Compound: BrC1=CN2C[n+]3cc(Br)ccc3N=C2C=C1
absorption maximum (in CO): 434 nm

Compound: CC(C)(C)c1cc2c(c(C(C)(C)C)c1)O[B-](F)(F)[n+]1c-2nc(-c2ccccc2)c2ccccc21
absorption maximum (in Cc1ccccc1): 410 nm

Compound: CC(C)(C)OC(=O)CN1CCN(c2ccc3c(-c4ccc(I)cc4)c4ccc(=[N+]5CCN(CC(=O)OC(C)(C)C)CC5)cc-4oc3c2)CC1
absorption maximum (in ClCCl): 564 nm

Compound: COc1ccc(C2=CC(c3ccc(OC)cc3)=[O+][B-](C(C)=O)(C(C)=O)O2)cc1
absorption maximum (in CC#N): 410 nm | absorption maximum (in ClC(Cl)(Cl)Cl): 405 nm

Compound: Cc1ccc(-c2c3ccc([nH]3)c3nc(c(-c4ccc(C#N)cc4)c4ccc([nH]4)c4ccc([nH]4)c(-c4ccc(C)cc4)c4ccc2o4)C=C3)cc1
absorption maximum (in C1CCOC1): 451 nm | absorption maximum (in Cc1ccccc1): 452 nm | absorption maximum (in c1ccccc1): 452 nm

Compound: CCC1=[N+]2c3c(c4ccc(Oc5c(C)cc(C)cc5C)c5cc6c(Oc7c(C)cc(C)cc7C)ccc7c8cc(CC)n(c8c3c(c54)c67)[B-]2(F)F)=C1
absorption maximum (in Cc1ccccc1): 867 nm

Compound: c1ccc2cc(-c3cc(-c4nccs4)nc(-c4nccs4)c3)ccc2c1
absorption maximum (in CC#N): 323 nm | absorption maximum (in CCCCCC): 333 nm | absorption maximum (in CO): 333 nm | absorption maximum (in ClC(Cl)Cl): 329 nm

Compound: CCCCCCCCCCCCCCCCCCOC(=O)/C=C/C1=CC2=C(c3c(C)cc(C)cc3C)c3cc(/C=C/C(=O)OCCCCCCCCCCCCCCCCCC)cn3[B-](F)(F)[N+]2=C1
absorption maximum (in ClCCl): 578 nm

Compound: Cc1cc(=O)oc2cc3c4ccccc4c4ccccc4c3cc12
absorption maximum (in C1CCOC1): 378 nm | absorption maximum (in CC#N): 375 nm | absorption maximum (in CO): 377 nm | absorption maximum (in CS(C)=O): 378 nm | absorption maximum (in Cc1ccccc1): 381 nm | absorption maximum (in ClC(Cl)Cl): 362 nm

Compound: N#Cc1cc2ccc(cc2)c2cccc3cccc(c4ccc(cc4)cc(C#N)c4ccc(cc4)c4cccc5cccc(c6ccc1cc6)c54)c32
absorption maximum (in Cc1ccccc1): 350 nm

Compound: CC(C)(C)c1ccc(-c2cc(-c3ccc(-c4cc(-c5ccc(C(C)(C)C)cc5)c(C#N)s4)s3)sc2C#N)cc1
absorption maximum (in ClCCl): 392 nm

Compound: CCOC(=O)COc1ccc(/C=C/C2=C3C(C)=CC(C)=[N+]3[B-](F)(F)n3c2c2ccccc2c3-c2[nH]c(C)cc2C)cc1
absorption maximum (in ClCCl): 608 nm

Compound: CN(C)c1ccc(/C=C/c2ncccn2)cc1
absorption maximum (in ClCCl): 379 nm

Compound: COc1cc(OC)cc(C2=C3C(C)=C(I)C(C)=[N+]3[B-](F)(F)n3c(C)c(I)c(C)c32)c1
absorption maximum (in CS(C)=O): 538 nm

Compound: COc1cc(OC)cc(C2=[O+][B-](F)(F)OC(c3ccc4cc(OC)ccc4c3)=C2)c1
absorption maximum (in ClCCl): 427 nm

Compound: CC(C)(C)OC(=O)/C=C/C1=CC2=C(c3ccccc3)c3cccn3[B-](F)(F)[N+]2=C1
absorption maximum (in ClCCl): 538 nm

Compound: COc1ccc(-c2nc(N)nc(C#N)c2C#N)cc1OC
absorption maximum (in C1COCCO1): 347 nm | absorption maximum (in CC#N): 359 nm | absorption maximum (in CC(C)=O): 348 nm | absorption maximum (in CCO): 350 nm | absorption maximum (in CCOC(C)=O): 356 nm | absorption maximum (in CO): 346 nm

Compound: CCCCCCCCN1c2ccc(C#Cc3cc(C(F)(F)F)cc(C(F)(F)F)c3)cc2Sc2cc(C=O)ccc21
absorption maximum (in C1CCOC1): 382 nm | absorption maximum (in CC#N): 386 nm | absorption maximum (in CCCCCC): 372 nm | absorption maximum (in CO): 366 nm | absorption maximum (in CS(C)=O): 396 nm | absorption maximum (in Cc1ccccc1): 381.01 nm | absorption maximum (in ClC(Cl)Cl): 386 nm

Compound: CC(C)Nc1cc2sc3cc(NC(C)C)c(F)cc3c(=O)c2cc1F
absorption maximum (in CCO): 377 nm

Compound: O=c1[nH]c2[n+](c3ccccc13)[B-](F)(F)Oc1ccccc1-2
absorption maximum (in CC#N): 343 nm | absorption maximum (in Cc1ccccc1): 354 nm

Compound: O=c1cc[nH]c(=O)[nH]1
absorption maximum (in CC#N): 256 nm

Second part, the compound after the results:

absorption maximum (in ClCCl): 445 nm
Compound: [O-][n+]1c(-c2ccccc2)cc(N2CCOCC2)nc1/C=C/c1ccccc1

absorption maximum (in CCO): 395 nm | absorption maximum (in ClCCl): 397 nm
Compound: COCc1ncc(-c2c3ccccc3c(-c3cnc(COC)nc3)c3ccccc23)cn1

absorption maximum (in CC#N): 401 nm | absorption maximum (in CO): 407 nm
Compound: O=C1c2ccccc2-c2c(-c3ccccc3)c(-c3ccccc3)c(-c3ccccc3)c3cccc1c23

absorption maximum (in ClCCl): 342 nm
Compound: O=[N+]([O-])c1ccc(O)c(-c2nc3c(c4c2-c2ccccc2CC4)-c2ccccc2CC3)c1

absorption maximum (in CC#N): 362 nm
Compound: O=C(O)c1ccc(-c2ccc(-c3nc(-c4ccccc4)c4ccccn34)cc2)s1

absorption maximum (in ClCCl): 300 nm
Compound: CC(C)(C)c1ccc(-c2ccc3c(-c4ccc(C(C)(C)C)c5ccccc45)cc4c5cc(-c6ccc(C(C)(C)C)c7ccccc67)ccc5c(-c5ccc(C(C)(C)C)c6ccccc56)cc4c3c2)c2ccccc12

absorption maximum (in C1COCCO1): 440 nm
Compound: CC(C)CN1C(=O)/C(=C/c2ccc(C#N)cc2)C=C1c1ccccc1

absorption maximum (in CC#N): 317 nm
Compound: c1ccc(-c2nc(-c3cccs3)[nH]c2-c2ccccc2)cc1

absorption maximum (in C1CCOC1): 304 nm
Compound: C1=C(c2ccccc2)C(c2ccccc2)C(c2ccccc2)=C1

absorption maximum (in CO): 327 nm
Compound: COc1ccc(-c2nc(-c3cccc(C#N)c3)[nH]c2-c2ccc(OC)cc2)cc1

absorption maximum (in ClC(Cl)Cl): 428 nm
Compound: CCCCCCN1C(=O)c2cccc3c(-c4ccc(-c5ccc(-c6ccc7c8c(cccc68)C(=O)N(CCCCCC)C7=O)s5)s4)ccc(c23)C1=O

absorption maximum (in ClCCl): 311 nm
Compound: COC(=O)C1=C(C(=O)OC)C2(c3ccccc3-c3ccccc32)[C@@H](c2ccc(C)cc2)C=C2c3cc(OC)c(OC)cc3CCN21

absorption maximum (in C1CCOC1): 350 nm
Compound: CCOC(=O)c1ccc(C2=C(c3ccccc3)c3oc4ccccc4[n+]3[B-](F)(F)O2)cc1

absorption maximum (in C1CCOC1): 519 nm | absorption maximum (in CN1CCCC1=O): 525 nm | absorption maximum (in CN(C)C=O): 522 nm and 524 nm
Compound: O=C1c2ccc3c4ccc5c6c(ccc(c7ccc(c2c37)C(=O)N1c1ccc(O)cc1)c64)C(=O)N(c1ccc(O)cc1)C5=O

absorption maximum (in ClC(Cl)Cl): 380 nm
Compound: CCCCC1(c2ccccc2)Nc2c(-c3ccc(N(C)c4ccccc4)cc3)ccc(-c3ccc(N(C)c4ccccc4)cc3)c2N=C1c1ccccc1 (stereo not given)

absorption maximum (in C1CCCCC1): 430 nm | absorption maximum (in C1CCOC1): 431 nm | absorption maximum (in CC#N): 429 nm | absorption maximum (in ClC(Cl)Cl): 431 nm | absorption maximum (in c1ccccc1): 433 nm
Compound: Cc1cc(C)c(B(c2c(C)cc(C)cc2C)c2cc3cc(N(C)C)c4ccccc4c3c3c2ccc2ccccc23)c(C)c1

absorption maximum (in ClCCl): 649 nm
Compound: Cc1ccc(-c2c3nc(c(-c4ccc(C)cc4)c4ccc([nH]4)c(-c4ccc(OC(=O)C(C)c5ccc(CC(C)C)cc5)cc4)c4nc(c(-c5ccc(C)cc5)c5ccc2[nH]5)C=C4)C=C3)cc1 (stereo not given)

absorption maximum (in C1CCOC1): 455 nm | absorption maximum (in CCCCCC): 447 nm | absorption maximum (in ClCCl): 465 nm | absorption maximum (in c1ccccc1): 457 nm
Compound: O=C1OC(=O)c2ccc(N(c3ccccc3)c3ccc4ccc5cccc6ccc3c4c56)c3cccc1c23
